Measured values reported in ChEMBL document CHEMBL3734753, “Phenyl Ether- and Aniline-Containing 2-Aminoquinolines as Potent and Selective Inhibitors of Neuronal Nitric Oxide Synthase” (J Med Chem, 2015).
pKi: −log10 of the molar value.

Key:
Nitric oxide synthase 1 [1] = target: Nitric oxide synthase 1 (Rattus norvegicus, UniProt P29476); experiment: Inhibition of wild type recombinant rat nNOS expressed in Escherichia coli assessed as nitric oxide production by hemoglobin capture assay
[2] = target: T1, Nitric oxide synthase, inducible (Mus musculus, UniProt P29477)
T1 sequence (P29477 whole entry): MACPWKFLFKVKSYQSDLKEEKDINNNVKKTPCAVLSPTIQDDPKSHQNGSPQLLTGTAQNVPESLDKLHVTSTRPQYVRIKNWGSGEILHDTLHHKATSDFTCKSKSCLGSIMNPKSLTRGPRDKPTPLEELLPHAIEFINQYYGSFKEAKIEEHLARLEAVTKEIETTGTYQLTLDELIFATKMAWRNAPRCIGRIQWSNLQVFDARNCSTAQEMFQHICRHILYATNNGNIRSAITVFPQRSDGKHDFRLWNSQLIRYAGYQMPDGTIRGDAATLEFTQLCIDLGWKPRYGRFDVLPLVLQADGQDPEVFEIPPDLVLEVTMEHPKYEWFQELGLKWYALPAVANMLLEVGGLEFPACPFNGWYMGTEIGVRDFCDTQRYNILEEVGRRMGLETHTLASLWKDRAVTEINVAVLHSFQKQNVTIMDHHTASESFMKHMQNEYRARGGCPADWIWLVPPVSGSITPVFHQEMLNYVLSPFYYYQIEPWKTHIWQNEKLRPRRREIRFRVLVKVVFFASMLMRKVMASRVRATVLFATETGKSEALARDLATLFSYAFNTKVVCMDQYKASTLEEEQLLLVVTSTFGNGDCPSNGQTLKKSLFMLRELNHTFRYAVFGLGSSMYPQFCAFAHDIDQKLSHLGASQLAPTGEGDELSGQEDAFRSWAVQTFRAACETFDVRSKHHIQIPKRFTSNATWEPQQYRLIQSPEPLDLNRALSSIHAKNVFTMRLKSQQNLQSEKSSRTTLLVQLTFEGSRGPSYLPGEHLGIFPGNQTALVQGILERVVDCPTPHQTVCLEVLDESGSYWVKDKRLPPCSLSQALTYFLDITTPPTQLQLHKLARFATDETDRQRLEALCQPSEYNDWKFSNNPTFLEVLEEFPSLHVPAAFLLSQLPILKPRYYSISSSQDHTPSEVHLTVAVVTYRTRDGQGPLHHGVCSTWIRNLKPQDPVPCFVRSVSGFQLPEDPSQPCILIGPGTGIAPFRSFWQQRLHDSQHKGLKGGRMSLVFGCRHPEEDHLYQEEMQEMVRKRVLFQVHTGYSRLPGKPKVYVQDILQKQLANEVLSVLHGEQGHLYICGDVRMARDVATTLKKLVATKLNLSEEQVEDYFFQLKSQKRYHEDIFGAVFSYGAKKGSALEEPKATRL

Nitric oxide synthase 3 = target: T2, Nitric oxide synthase 3 (Bos taurus, UniProt P29473); experiment: Inhibition of recombinant bovine eNOS expressed in Escherichia coli assessed as nitric oxide production by hemoglobin capture assay
T2 sequence (P29473 whole entry): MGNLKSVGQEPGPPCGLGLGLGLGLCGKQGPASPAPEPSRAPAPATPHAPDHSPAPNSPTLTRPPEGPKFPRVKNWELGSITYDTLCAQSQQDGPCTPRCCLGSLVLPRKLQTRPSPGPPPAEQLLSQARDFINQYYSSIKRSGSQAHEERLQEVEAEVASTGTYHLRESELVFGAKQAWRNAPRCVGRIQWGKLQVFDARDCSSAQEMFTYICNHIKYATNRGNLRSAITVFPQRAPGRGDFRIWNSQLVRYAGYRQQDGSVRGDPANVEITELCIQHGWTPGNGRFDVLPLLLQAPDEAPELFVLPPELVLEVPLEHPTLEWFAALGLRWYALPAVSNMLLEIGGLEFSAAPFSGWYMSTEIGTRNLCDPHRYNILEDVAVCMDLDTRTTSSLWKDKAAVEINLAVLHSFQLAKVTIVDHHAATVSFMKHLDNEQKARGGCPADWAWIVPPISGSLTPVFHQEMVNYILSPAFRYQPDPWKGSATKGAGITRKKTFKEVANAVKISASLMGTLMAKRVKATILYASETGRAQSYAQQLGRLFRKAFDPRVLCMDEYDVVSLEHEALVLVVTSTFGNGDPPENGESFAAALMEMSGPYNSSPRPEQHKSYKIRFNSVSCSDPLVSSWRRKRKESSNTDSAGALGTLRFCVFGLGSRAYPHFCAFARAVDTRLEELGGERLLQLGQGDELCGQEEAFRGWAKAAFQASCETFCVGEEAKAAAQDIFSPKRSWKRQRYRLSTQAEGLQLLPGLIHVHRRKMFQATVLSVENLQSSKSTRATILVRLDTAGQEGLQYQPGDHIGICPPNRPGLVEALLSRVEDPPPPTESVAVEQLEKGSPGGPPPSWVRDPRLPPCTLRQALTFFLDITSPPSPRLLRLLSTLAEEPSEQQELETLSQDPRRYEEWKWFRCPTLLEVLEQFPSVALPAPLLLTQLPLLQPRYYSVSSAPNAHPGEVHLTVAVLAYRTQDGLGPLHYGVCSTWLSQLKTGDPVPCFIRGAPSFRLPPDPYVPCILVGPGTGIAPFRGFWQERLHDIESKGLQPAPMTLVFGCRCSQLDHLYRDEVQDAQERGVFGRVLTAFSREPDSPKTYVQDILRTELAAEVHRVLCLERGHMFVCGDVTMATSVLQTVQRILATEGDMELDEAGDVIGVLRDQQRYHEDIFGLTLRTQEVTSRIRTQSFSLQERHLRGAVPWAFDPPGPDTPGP

[3] = Selectivity ratio of Ki for wild type recombinant rat nNOS to Ki for human nNOS
Nitric oxide synthase 1 [4] = target: Nitric oxide synthase 1 (Homo sapiens, UniProt P29475)
Nitric oxide synthase 1 (Homo sapiens, UniProt P29475), sequence (P29475 whole entry): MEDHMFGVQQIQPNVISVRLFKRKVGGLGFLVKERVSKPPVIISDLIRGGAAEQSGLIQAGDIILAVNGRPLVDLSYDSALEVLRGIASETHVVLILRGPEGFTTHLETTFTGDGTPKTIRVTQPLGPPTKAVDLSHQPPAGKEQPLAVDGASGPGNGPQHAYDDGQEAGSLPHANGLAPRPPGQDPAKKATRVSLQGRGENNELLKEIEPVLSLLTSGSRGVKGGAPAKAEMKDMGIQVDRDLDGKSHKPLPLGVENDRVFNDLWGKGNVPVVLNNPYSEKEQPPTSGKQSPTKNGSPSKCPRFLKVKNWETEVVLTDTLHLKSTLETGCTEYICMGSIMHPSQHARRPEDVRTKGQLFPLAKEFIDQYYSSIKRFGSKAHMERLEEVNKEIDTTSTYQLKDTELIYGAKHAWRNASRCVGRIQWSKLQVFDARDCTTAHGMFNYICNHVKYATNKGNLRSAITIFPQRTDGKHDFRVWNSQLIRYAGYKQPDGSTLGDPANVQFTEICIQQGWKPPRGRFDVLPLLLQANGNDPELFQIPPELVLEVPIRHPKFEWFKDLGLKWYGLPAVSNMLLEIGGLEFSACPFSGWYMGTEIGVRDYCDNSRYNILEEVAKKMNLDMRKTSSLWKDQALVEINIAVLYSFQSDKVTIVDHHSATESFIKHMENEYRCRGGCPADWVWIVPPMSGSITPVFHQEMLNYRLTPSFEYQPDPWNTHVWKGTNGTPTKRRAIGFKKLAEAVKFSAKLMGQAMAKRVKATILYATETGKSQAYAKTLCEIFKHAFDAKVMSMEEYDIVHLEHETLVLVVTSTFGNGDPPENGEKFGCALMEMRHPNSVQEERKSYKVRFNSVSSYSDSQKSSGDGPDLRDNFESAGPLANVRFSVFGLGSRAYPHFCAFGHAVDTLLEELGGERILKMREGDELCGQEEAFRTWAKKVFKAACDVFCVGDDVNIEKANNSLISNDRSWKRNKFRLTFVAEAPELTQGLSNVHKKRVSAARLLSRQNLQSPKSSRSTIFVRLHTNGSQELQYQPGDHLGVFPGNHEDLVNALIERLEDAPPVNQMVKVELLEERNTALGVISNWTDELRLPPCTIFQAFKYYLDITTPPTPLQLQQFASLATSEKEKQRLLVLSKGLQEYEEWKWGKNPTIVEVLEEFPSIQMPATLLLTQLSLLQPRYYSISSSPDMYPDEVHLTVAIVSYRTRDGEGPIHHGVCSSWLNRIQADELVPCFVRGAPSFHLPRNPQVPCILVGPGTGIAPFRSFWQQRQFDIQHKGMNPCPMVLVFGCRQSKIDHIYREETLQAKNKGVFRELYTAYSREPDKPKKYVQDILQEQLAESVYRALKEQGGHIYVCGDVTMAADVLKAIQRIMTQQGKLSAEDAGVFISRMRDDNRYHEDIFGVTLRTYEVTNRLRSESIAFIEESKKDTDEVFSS

[5] = Selectivity ratio of Ki for wild type recombinant rat nNOS to Ki for bovine eNOS

Nitric oxide synthase 1 (Rattus norvegicus, UniProt P29476), sequence (P29476 whole entry): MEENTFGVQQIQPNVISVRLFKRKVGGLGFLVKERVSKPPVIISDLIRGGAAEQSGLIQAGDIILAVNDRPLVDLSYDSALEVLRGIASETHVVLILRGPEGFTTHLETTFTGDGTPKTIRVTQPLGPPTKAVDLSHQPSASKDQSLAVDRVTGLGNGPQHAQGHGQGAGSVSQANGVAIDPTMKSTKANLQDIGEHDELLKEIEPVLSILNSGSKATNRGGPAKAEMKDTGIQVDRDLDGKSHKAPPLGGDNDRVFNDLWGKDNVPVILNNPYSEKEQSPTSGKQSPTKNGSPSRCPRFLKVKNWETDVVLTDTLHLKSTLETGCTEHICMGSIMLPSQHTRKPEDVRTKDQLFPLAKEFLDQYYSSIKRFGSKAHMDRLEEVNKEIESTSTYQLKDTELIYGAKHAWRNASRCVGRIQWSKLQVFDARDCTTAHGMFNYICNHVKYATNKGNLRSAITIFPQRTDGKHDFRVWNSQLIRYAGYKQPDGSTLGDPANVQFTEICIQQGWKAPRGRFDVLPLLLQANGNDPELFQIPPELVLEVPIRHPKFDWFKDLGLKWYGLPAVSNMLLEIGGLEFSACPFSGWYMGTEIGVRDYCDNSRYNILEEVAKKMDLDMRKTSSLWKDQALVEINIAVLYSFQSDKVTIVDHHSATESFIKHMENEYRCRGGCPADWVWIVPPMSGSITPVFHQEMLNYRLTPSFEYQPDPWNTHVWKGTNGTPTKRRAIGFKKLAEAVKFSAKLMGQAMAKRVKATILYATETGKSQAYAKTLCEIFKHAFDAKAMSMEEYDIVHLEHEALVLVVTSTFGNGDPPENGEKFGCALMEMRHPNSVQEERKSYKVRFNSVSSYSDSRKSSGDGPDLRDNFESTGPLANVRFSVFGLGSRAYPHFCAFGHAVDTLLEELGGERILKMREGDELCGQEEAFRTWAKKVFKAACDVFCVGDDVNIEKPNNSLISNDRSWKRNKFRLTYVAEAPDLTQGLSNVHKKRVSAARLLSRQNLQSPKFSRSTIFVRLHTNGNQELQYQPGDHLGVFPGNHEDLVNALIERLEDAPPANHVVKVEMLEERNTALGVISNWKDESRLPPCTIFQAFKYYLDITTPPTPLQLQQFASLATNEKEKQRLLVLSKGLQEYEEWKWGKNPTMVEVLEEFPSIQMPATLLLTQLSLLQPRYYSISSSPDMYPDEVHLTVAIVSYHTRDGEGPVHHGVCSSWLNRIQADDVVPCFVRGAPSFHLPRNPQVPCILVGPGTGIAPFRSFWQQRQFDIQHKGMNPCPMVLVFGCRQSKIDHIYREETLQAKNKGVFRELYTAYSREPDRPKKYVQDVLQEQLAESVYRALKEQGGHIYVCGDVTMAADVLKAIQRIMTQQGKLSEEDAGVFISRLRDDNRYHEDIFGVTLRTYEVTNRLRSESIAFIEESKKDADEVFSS

| SMILES | pKi (Nitric oxide synthase 1 [1]) | pKi [2] | pKi (Nitric oxide synthase 3) | Ratio Ki [3] | pKi (Nitric oxide synthase 1 [4]) | Ratio Ki [5] |
| --- | --- | --- | --- | --- | --- | --- |
| CN(C)CCc1cccc(OCc2ccc3ccc(N)nc3c2)c1 | 6.33 | 3.82 | 4.75 |  |  |  |
| CNCc1cncc(OCc2ccc3ccc(N)nc3c2)c1 | 7.37 | 4.87 | 5.48 | 11.8 | 6.29 | 77 |
| CNCc1ccc(OCc2ccc3ccc(N)nc3c2)cc1 | 6.48 | 4.31 |  |  |  |  |
| Nc1ccc2ccc(COc3cccnc3)cc2n1 | 6.15 |  |  |  |  |  |
| CNC(C)c1cccc(OCc2ccc3ccc(N)nc3c2)c1 (racemic) | 6.44 | 4.17 |  |  |  |  |
| CNCc1cccc(NCc2ccc3ccc(N)nc3c2)c1 | 6.24 |  |  |  |  |  |

More lines, now with the values ahead:

| pKi (Nitric oxide synthase 1 [1]) | pKi [2] | pKi (Nitric oxide synthase 3) | Ratio Ki [3] | pKi (Nitric oxide synthase 1 [4]) | Ratio Ki [5] | SMILES |
| --- | --- | --- | --- | --- | --- | --- |
| 6.19 |  |  |  |  |  | CN(C)CCCc1cccc(OCc2ccc3ccc(N)nc3c2)c1 |
|  | 3.75 | 4.51 |  |  | 44 | CN(C)CCOc1cccc(OCc2ccc3ccc(N)nc3c2)c1 |
| < 5.24 |  |  |  |  |  | CN(C)c1cccc(OCc2ccc3ccc(N)nc3c2)c1 |
|  | 4.94 |  |  |  |  | CNCc1cc(OCc2ccc3ccc(N)nc3c2)ccc1F |
